Tested on: rat monocrotaline (MCT)-induced severe heart failure (pulmonary hypertension) model
Experiment: Survival rate in rat monocrotaline-induced pulmonary hypertension model
Format: in vivo
Details: 42 days after MCT; oral 50 mg/kg × twice/day from day 7
From the text: The produced Formulation 21 (ONO-1301Lipo formulation) as a test substance was intermittently administered intravenously once weekly to a rat monocrotaline (MCT)-induced severe heart failure (pulmonary hypertension) model from day 7 of the MCT administration, and the survival rate was compared with a group in which compound (A) (ONO-1301) was repeatedly orally administered; a group in which compound (A) was intermittently administered intravenously once weekly; and, as a positive control, a group in which an ET-1 antagonist (bosentan) was orally administered. In the control group, physiological saline (vehicle) was administered once weekly by intravenous administration.
For animals, Slc: Wistar male rats, 5 weeks old at the start of the test, and 66.4 to 90.8 g at arrival (Japan SLC, Inc.) were used. Monocrotaline (hereinafter referred to as “MCT”), lot No.: SLBG1999V (Sigma-Aldrich Corporation), was administered once subcutaneously at the back of the rats at a dose of 60 mg/kg. Six days after the MCT administration, the animals were divided into groups according to the weight stratification assignment method (Table 19).

Structure (SMILES): COc1ccccc1Oc1c(NS(=O)(=O)c2ccc(C(C)(C)C)cc2)nc(-c2ncccn2)nc1OCCO [Bosentan]
- Survival rate (%): 30%
